Laboratory results published in publication PMC6597546, “Identification of a potent benzoxaborole drug candidate for treating cryptosporidiosis” (Nature Communications, 2019).
Values joined by “and” are separate entries in the source; they are usually repeats but may differ in a detail not shown here. Equal values may be shown once. Read-outs that look alike come from different tables or passages of the source. Values belong to the compound of their own block, whether it stands above or below them.

What was measured:
[1] = test system: C. parvum invasion of HCT-8 host cells; test: HCT-8 host cell invasion assay; format: cell-based, Cryptosporidium parvum; conditions: 11.3 µM, HCT-8 invasion 3 h
Method: (§1) The invasion assay, DNA replication assay, asexual to sexual stage conversion, and time-kill curve assays were performed using fluorescence microscopy to enumerate parasites and host cell nuclei. Staining protocols are individually described for each assay. Unless noted otherwise, the details of image acquisition were as follows. An inverted Nikon Eclipse Ti2000 microscope with an automated stage and Perfect Focus was used with NIS-Elements Advanced Research software (Nikon, USA, version 4.30.01) to image the wells. The microscope was programmed to focus on the center of each well and then take a 3 × 3 composite image per well using a 20 × (0.45 NA) objective. Images were exported as .tiff files and parasites and host nuclei counted using a custom macro on ImageJ (National Institutes of Health, version 1.52a). Data were analyzed using Microsoft Excel and GraphPad Prism (version 6.01).
Host cell invasion was assayed by allowing C. parvum to invade host cell monolayers in the presence of compound, and enumerating parasites and host cells after just 3 h (i.e., before completion of a parasite division cycle)[38]. HCT-8 cells were grown in RPMI media supplemented with 120 U per mL penicillin and 120 μg per mL streptomycin and 10% heat inactivated fetal bovine serum (complete media) and C. parvum Iowa isolate oocysts from Bunch Grass Farms (Deary, ID) were used for infection. When cells reached a confluence of >99%, media was removed and replaced with 25 µL per well of fresh media containing twice the indicated concentrations of compounds and incubated for 1 h at 37 °C in a humidified CO2 incubator. In the meantime, oocysts were induced for excystation by first treating with 10 mM hydrochloric acid (diluted with distilled water) for 10 min at 37 °C followed by 2 mM sodium taurocholate (in phosphate buffered saline (PBS) with calcium and magnesium) for 10 min at 16 °C. Before and after each treatment, oocysts were spun down at 14,000 × g for 4.5 min and supernatant was removed. […]

[2] = test system: C. parvum DMC1 positive parasites; design: method as in PMID 31015448; conditions: cited from earlier work
C. parvum = C. parvum growth inhibition in HCT-8 cells (follow-up assay, Vicia villosa lectin staining); format: cell-based, Cryptosporidium parvum; conditions: Iowa (BGF, 10%FBS), HCT-8, single replicates, unit inferred, read-out: In vitro efficacy (Fig 2b, EC50)
Method: Follow-up assays were performed at the University of Vermont (UVM) and Calibr at Scripps Research by infection of the colonic adenocarcinoma cell line HCT-8 (ATCC CCL-244) and staining with the Vicia villosa lectin and DAPI[17],[32]. The FBS concentrations and parasites used for these assays were as indicated; parasite isolates and sources included C. parvum Iowa isolate oocysts purchased from Bunch Grass Farm (Deary, ID), C. parvum Iowa isolate oocysts purchased from the Sterling Laboratory (University of Arizona, Tucson, AZ), wild type C. parvum oocysts provided by Dr. Jenni Zambriski (Virginia Tech, Blacksburg, VA), and the C. hominis TU502 isolate purchased from Dr. Saul Tzipori (Tufts University Cummings School of Veterinary Medicine, North Grafton, MA). […] Amphotericin B (Sigma, catalog# A2942) was added to the culture media at 0.1 to 0.5 µg per mL for the DMC1 dose response assays.

[3] = test system: C. parvum (Bunch Grass Farms Iowa isolate); test: Time-kill curve assay in HCT-8 cells; format: cell-based, Cryptosporidium parvum; conditions: for time-kill curve result: compound added ~24 h after infection of HCT-8
Method: as §1, with “6.01). […] C. parvum Iowa isolate oocysts (Bunch Grass Farms, Deary, ID) were treated to induce excystation and added to >90% confluent HCT-8 cells in 384-well plates. […] The monolayers were then washed, fixed, and stained with Vicia villosa lectin and DAPI at the indicated time points, and imaged as for the C. parvum growth assay. Separate 384-well plates were used for each time point. Parasite numbers were normalized to host cell nucleus numbers and expressed as the percentage of host cells infected. Drug-induced parasite decay was isolated from the reduction in parasites over time that occurs spontaneously in the HCT-8 culture system by expressing the number of parasites as the percentage of the number of parasites present at each time point under control (DMSO-treated) conditions.” for “6.01).”

[4] = test system: C. parvum (Bunch Grass Farms Iowa isolate); test: NOD scid gamma (NSG) mouse model of established C. parvum infection; format: in vivo, NOD scid gamma mice; conditions: for parasite fecal shedding (qPCR), individual mice: 2,000 mg/kg
Method: NOD scid gamma mice (NOD.Cg-Prkdcscid Il2rgtm1Wjl/SzJ)[55] (NSG) were used to model chronic Cryptosporidium infection. All NSG mouse studies were performed in compliance with animal care guidelines and with approval by the University of Vermont Institutional Animal Care and Use Committee. NSG mice with normal flora were purchased from The Jackson Laboratory (Bar Harbor, ME) and were housed for at least a week for acclimatization. […] Fecal parasite shedding was measured using a quantitative PCR (qPCR) assay, and the primers named above as Cp18s forward and Cp18s reverse.

Structure (SMILES): CN(C)C[C@H](O)Cn1c2ccc(Br)cc2c2cc(Br)ccc21 (racemic) [Wiskostatin, wiskostatin]
% Inhibition (normalized to DMSO control) [1]: 92%
inhibition at 11.3 µM ([1]; Cryptosporidium parvum, HCT-8, 3 h, read-out: % Inhibition (normalized to DMSO control)): 90%

Structure (SMILES): O=C(Nc1ccc(Cl)cc1)N1CCN(c2ccc3nncn3n2)CC1 [MMV665917]
potency against asexual vs sexual stage parasites [2]: equal potency against asexual and sexual stage parasites

EC50 (C. parvum; Cryptosporidium parvum, HCT-8, in Vicia villosa): 1190 nM
EC50 (C. parvum): 2090 nM and 1750 nM
Structure (SMILES): CC(=O)Oc1ccccc1C(=O)Nc1ncc([N+](=O)[O-])s1 [Nitazoxanide, nitazoxanide]
% C. parvum relative to DMSO control ([3]; EC90, 0 h exposure): 92.14% and 109.39% and 105.07% and 102.65%
% C. parvum relative to DMSO control ([3]; EC90, 6 h exposure): 89.44% and 63.73% and 107.77% and 101.99%
% C. parvum relative to DMSO control ([3]; EC90, 12 h exposure): 64.07% and 50.47% and 61.96% and 52.34%
% C. parvum relative to DMSO control ([3]; EC90, 24 h exposure): 33.99% and 23.15% and 39.39% and 30.38%
% C. parvum relative to DMSO control ([3]; EC90, 48 h exposure): 66.11% and 87.75% and 96.10% and 82.36%
% C. parvum relative to DMSO control ([3]; EC90, 72 h exposure): 59.95% and 89.51% and 62.55% and 99.92%
time-kill curve result [3]: likely parasitistatic or very slow acting
time-kill curve result ([3]; listed as NTZ): No exponential decay curve can be fit
% Parasite / host nuclei ([3]; compound at 3 x EC90, 0 h exposure, listed as Nitazonxanide): 25.13% and 23.57% and 25.93% and 26.94%
% Parasite / host nuclei ([3]; compound at 3 x EC90, 6 h exposure, listed as Nitazonxanide): 30.07% and 28.12% and 27.66%
% Parasite / host nuclei ([3]; compound at 3 x EC90, 24 h exposure, listed as Nitazonxanide): 13.35% and 18.43% and 17.09% and 15.85%
% Parasite / host nuclei ([3]; compound at 3 x EC90, 48 h exposure, listed as Nitazonxanide): 16.05% and 22.2% and 25.78% and 20.53%
% Parasite / host nuclei ([3]; compound at 3 x EC90, 72 h exposure): Toxic
% Parasite / host nuclei ([3]; compound at 6 x EC90, 0 h exposure, listed as Nitazonxanide): 26.94% and 25.13% and 23.57% and 25.93%
% Parasite / host nuclei ([3]; compound at 6 x EC90, 6 h exposure, listed as Nitazonxanide): 30.15% and 26.39% and 33.45% and 27.12%
% Parasite / host nuclei ([3]; compound at 6 x EC90, 24 h exposure, listed as Nitazonxanide): 10.66% and 16.54% and 13.19% and 15.55%
% Parasite / host nuclei ([3]; compound at 6 x EC90, 48 h exposure, listed as Nitazonxanide): 24.32% and 23.51% and 19.71% and 19.93%
% Parasite / host nuclei ([3]; compound at 6 x EC90, 72 h exposure): Toxic
% Parasite / host nuclei ([3]; compound at 9 x EC90, 0 h exposure, listed as Nitazonxanide): 26.94% and 25.13% and 23.57% and 25.93%
% Parasite / host nuclei ([3]; compound at 9 x EC90, 6 h exposure, listed as Nitazonxanide): 26.17% and 22.66% and 19.45% and 20.04%
% Parasite / host nuclei ([3]; compound at 9 x EC90, 24 h exposure, listed as Nitazonxanide): 13.32% and 10.07% and 14.28% and 12.9%
% Parasite / host nuclei ([3]; compound at 9 x EC90, 48 h exposure, listed as Nitazonxanide): 23.17% and 21.12% and 20.67% and 21.26%
% Parasite / host nuclei ([3]; compound at 9 x EC90, 72 h exposure): Toxic
% Parasite / host nuclei ([3]; compound at 12 x EC90, 0 h exposure, listed as Nitazonxanide): 26.94% and 25.13% and 23.57% and 25.93%
% Parasite / host nuclei ([3]; compound at 12 x EC90, 24 h exposure, listed as Nitazonxanide): 12.84% and 10.89% and 15.16% and 10.85%
% Parasite / host nuclei ([3]; compound at 12 x EC90, 48 h exposure, listed as Nitazonxanide): 17.1% and 18.74% and 17.39% and 22.34%
% Parasite / host nuclei ([3]; compound at 12 x EC90, 72 h exposure): Toxic
% Parasite / host nuclei ([3]; compound at EC50, 0 h exposure, listed as Nitazonxanide): 26.94% and 25.13% and 23.57% and 25.93%
% Parasite / host nuclei ([3]; compound at EC50, 6 h exposure, listed as Nitazonxanide): 25.94% and 27.24% and 39.66% and 24.06%
% Parasite / host nuclei ([3]; compound at EC50, 24 h exposure, listed as Nitazonxanide): 49.74% and 52.37% and 49.99% and 64.54%
% Parasite / host nuclei ([3]; compound at EC50, 48 h exposure, listed as Nitazonxanide): 50.13% and 44.73% and 56.15% and 36.04%
% Parasite / host nuclei ([3]; compound at EC50, 72 h exposure, listed as Nitazonxanide): 36.74% and 33.35% and 25.45% and 34.5%
% Parasite / host nuclei ([3]; compound at EC90, 0 h exposure, listed as Nitazonxanide): 26.94% and 25.13% and 23.57% and 25.93%
% Parasite / host nuclei ([3]; compound at EC90, 6 h exposure, listed as Nitazonxanide): 29.07%
% Parasite / host nuclei ([3]; compound at EC90, 24 h exposure, listed as Nitazonxanide): 18.51% and 12.77% and 20.62% and 15.68%
% Parasite / host nuclei ([3]; compound at EC90, 48 h exposure, listed as Nitazonxanide): 23.29% and 31.8% and 31.94% and 28.34%
% Parasite / host nuclei ([3]; compound at EC90, 72 h exposure, listed as Nitazonxanide): 16.17% and 23.44% and 16.12% and 24.86%

Structure (SMILES): NC[C@@H]1O[C@H](O[C@H]2[C@@H](O)[C@H](O[C@@H]3[C@@H](O)[C@H](N)C[C@H](N)[C@H]3O[C@H]3O[C@H](CO)[C@@H](O)[C@H](O)[C@H]3N)O[C@@H]2CO)[C@H](N)[C@@H](O)[C@@H]1O [Paromomycin, paromomycin, reference compound]
parasite fecal shedding (qPCR), individual mice ([4]; D7 (before treatment)): 801.749 oocysts/mg feces and 822.565 oocysts/mg feces and 435.223 oocysts/mg feces and 38.903 oocysts/mg feces
parasite fecal shedding (qPCR), individual mice ([4]; D11): 28.872 oocysts/mg feces and 141.665 oocysts/mg feces and 45.072 oocysts/mg feces and 47.829 oocysts/mg feces
reduction of fecal parasite shedding ([4]; paromomycin positive control, after 4 days of treatment, once daily oral): ~90%
